The record followed here is patent US20100240065A1, “Prolyl Hydroxylase Compositions and Methods of Use Thereof” (Boehringer Ingelheim International GmbH, priority 2009, published 2010).

Where two headings read alike, the source gives them in different places.

In one assay the target is rhesus HPH1 (Macaca mulatta, UniProt I2CX88). Put plainly: biochemical. How it is done: (§1) The VBC protein complex was generated by co-expression of Glutathione S-Transferase-VHL (von Hippel Lindau), elongin B and elongin C in Escherichia coli followed by purification of the complex using glutathione affinity resin and size-exclusion chromatography. The HPH enzyme assay is conducted in the well of a 96- or 384-well plate. […] The time-resolved fluorescent signal (excitation at 330 nm; emission at 620 and 665 nm) is read on a plate reader after 1 h of incubation. The ratio of signal at 665 nm to 620 nm is used to calculate the amount of peptide interaction with GST-VBC as a measure of protein hydroxylation.
(§2) The activity of the HPH proteins was measured using an assay dependent upon VBC-recognition of a hydroxylated peptide. The VBC protein complex was generated by co-expression of Glutathione S-Transferase-VHL (von Hippel Lindau), elongin B and elongin C in Escherichia coli followed by purification of the complex using glutathione affinity resin and size-exclusion chromatography. The HPH enzyme assay is conducted in the well of a 96- or 384-well plate. […] The ratio of signal at 665 nm to 620 nm is used to calculate the amount of peptide interaction with GST-VBC as a measure of protein hydroxylation.

A further assay deals with rhesus HPH2 (Macaca mulatta, UniProt I2CX88). Conditions: read-out: IC50 HPH2; inhibitory activity against rhesus HPH2. How it is done:
as §1, §2

Another assay addresses T1, rhesus HPH3 (Macaca mulatta, UniProt H9FPE4).
T1 construct: fused on or other part: C-terminal GST tag used for purification and removed with thrombin before the assay
In words: HPH enzyme TR-FRET assay (VBC-recognition of hydroxylated HIF peptide), HPH3. The assay is classed as biochemical. Particulars: inhibitory activity against rhesus HPH3. In general terms: In TR-FRET formats the signal depends on donor and acceptor labels being close together.

For assay [1], the system named is recombinant rhesus HPH protein. In words: HPH enzyme activity assay, effect of cofactors and metal ions (isoform not given). The assay is classed as biochemical, rhesus (Macaca mulatta).

Sequence of rhesus HPH1 (I2CX88 1-426): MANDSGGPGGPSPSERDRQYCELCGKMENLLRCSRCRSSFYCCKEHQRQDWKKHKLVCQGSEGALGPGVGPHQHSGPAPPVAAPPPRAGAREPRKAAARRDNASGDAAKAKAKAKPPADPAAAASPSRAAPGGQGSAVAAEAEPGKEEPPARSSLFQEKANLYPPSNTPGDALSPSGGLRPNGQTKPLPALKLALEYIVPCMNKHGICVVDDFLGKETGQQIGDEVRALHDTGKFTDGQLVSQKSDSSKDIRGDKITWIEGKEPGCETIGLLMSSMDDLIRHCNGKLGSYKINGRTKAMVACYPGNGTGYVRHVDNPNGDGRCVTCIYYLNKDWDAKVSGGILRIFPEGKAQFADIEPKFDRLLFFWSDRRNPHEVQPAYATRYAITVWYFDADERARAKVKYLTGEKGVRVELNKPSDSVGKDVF
Sequence of rhesus HPH2 (I2CX88 1-426): as above

The term IC50 denotes the concentration needed to halve the response being measured. On to `O=C(O)CCC(=O)O` [Succinate], for which the IC50 on rhesus HPH1 (read-out: IC50 HPH1, inhibitory activity against rhesus HPH1) turned out to be 200 µM; on rhesus HPH2, 380 µM; on rhesus HPH3, 80 µM. Take `O=C(O)CNC(=O)C(=O)O` [N-oxalylglycine]: at rhesus HPH3, the IC50 stood at 0.66 µM. On to `NNc1nncc2ccccc12` [Hydralazine], for which the figures for the IC50 against rhesus HPH1 and at rhesus HPH3 were 400 µM and 54 µM, respectively.

In the case of `[Cl-].[Cl-].[Co+2]` [CoCl2], the “effect of addition on enzyme activity” value in assay [1] is reported as “inhibited enzyme activity”. `[Fe+2]` [ferrous iron]: in assay [1] (recombinant rhesus HPH, isoform not stated), the “effect of addition on enzyme activity” value is given as “increased the activity of the enzyme”.
